Earlier results as cited in publication PMC6861001 (Chemistry (Weinheim an der Bergstrasse, Germany), 2019).

Compound: N[C@@H](C[SeH])C(=O)O [Sec, selenocysteine]
- pKa of selenol group: ~5.2
- reduction potential E0: −386 mV
